The text below walks through data of patent US10780090B2, “Heteroaryl compounds useful as inhibitors of SUMO activating enzyme” (Millennium Pharmaceuticals, Inc., priority 2014, dated 2020).

As a reminder, the pIC50 is the IC50 on a negative log10 scale, so that one unit is a factor of ten. Usually inhibition stands for the relative decrease from the control value, in per cent. In general, IC50 refers to the point on the concentration scale where inhibition reaches its midpoint.

Molecules are shown by their SMILES. pIC50: −log10 of the molar value.

In the assay the target is recombinant human SAE enzyme (Homo sapiens (Human), UniProt Q9UBT2). Briefly: SAE HTRF enzyme assay. The assay is classed as biochemical. The following applies: for pIC50: class symbols A/B/C; for inhibition at 0.111 µM: read-out: Percent Inhibition; for IC50: SAE inhibition, class symbols, legend in nM. Put shortly: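 Sumoylation of Ubc9-GST by SAE was followed at low ATP (0.5 μM), pH 7.5, 24° C. for 105 min. Product was detected by HTRF with antibody pairs against Flag and GST tags.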

[1] abbreviates: SAE inhibition at compound concentration 0.111 μM.

recombinant human SAE enzyme, sequence (Q9UBT2 whole entry): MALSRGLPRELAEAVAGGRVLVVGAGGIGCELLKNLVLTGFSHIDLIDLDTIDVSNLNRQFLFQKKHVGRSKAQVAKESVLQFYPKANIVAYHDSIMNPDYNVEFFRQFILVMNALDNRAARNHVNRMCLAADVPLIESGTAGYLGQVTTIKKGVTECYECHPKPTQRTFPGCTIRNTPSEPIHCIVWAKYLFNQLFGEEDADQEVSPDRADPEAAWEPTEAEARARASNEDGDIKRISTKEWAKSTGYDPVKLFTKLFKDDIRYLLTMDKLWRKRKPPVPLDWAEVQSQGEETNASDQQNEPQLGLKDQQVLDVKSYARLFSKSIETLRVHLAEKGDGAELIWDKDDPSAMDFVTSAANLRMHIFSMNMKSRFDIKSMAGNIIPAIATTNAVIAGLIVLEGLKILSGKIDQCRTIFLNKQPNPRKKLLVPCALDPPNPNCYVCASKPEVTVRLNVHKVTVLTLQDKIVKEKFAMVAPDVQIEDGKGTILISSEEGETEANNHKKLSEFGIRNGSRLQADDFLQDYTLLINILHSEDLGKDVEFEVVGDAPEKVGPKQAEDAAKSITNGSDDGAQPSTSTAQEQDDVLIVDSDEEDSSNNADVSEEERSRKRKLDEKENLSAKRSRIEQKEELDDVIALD
recombinant human SAE enzyme, sequence (Q9UBE0 whole entry partner): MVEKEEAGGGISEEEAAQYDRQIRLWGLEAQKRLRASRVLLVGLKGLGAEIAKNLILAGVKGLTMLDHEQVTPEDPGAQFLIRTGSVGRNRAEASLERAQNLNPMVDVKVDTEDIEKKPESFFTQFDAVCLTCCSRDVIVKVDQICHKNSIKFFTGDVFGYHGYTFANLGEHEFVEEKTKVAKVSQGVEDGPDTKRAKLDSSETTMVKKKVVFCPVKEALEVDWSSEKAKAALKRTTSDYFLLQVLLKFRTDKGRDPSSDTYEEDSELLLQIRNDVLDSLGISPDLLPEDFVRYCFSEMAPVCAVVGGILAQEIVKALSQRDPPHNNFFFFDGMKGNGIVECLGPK

For the molecule `NS(=O)(=O)OC[C@H]1C[C@@H](Nc2ncncc2C(=O)c2cc([C@@H]3OCCc4cccnc43)c(Cl)s2)C[C@@H]1O` (single isomer, unassigned) [I-266b, [(1R,2S,4R)-4-{[5-({5-chloro-4-[(8S)-5,8-dihydro-6H-pyrano[3,4-b]pyridin-8-yl]-2-thienyl}carbonyl)pyrimidin-4-yl]amino}-2-hydroxycyclopentyl]methyl sulfamate or [(1R,2S,4R)-4-{[5-({5-chloro-4-[(8R)-5,8-dihydro-6H-pyrano[3,4-b]pyridin-8-yl]-2-thienyl}carbonyl)pyrimidin-4-yl]amino}-2-hydroxycyclopentyl]methyl sulfamate], the pIC50 is over 8.00. In addition, the “Percent Inhibition” value (Concentration 0.111 μM) worked out at 100.
In the case of `Cc1nn(Cc2csc(C(=O)c3cncnc3N[C@@H]3C[C@H](COS(N)(=O)=O)[C@@H](O)C3)c2)c2cnccc12` [I-160, [(1R,2S,4R)-2-hydroxy-4-{[5-({4-[(3-methyl-1H-pyrazolo[3,4-c]pyridin-1-yl)methyl]-2-thienyl}carbonyl)pyrimidin-4-yl]amino}cyclopentyl]methyl sulfamate], the pIC50 is over 8.00. Moreover, the inhibition at 0.111 µM (Concentration 0.111 μM) was 92%.
With `NS(=O)(=O)OC[C@H]1C[C@@H](Nc2ncncc2C(=O)c2cc(C3SCCc4ccc(Cl)cc43)cs2)C[C@@H]1O` (single isomer, unassigned) [I-320b, [(1R,2S,4R)-4-{[5-({4-[(1R)-7-chloro-3,4-dihydro-1H-isothiochromen-1-yl]-2-thienyl}carbonyl)pyrimidin-4-yl]amino}-2-hydroxycyclopentyl]methyl sulfamate or [(1R,2S,4R)-4-{[5-({4-[(1S)-7-chloro-3,4-dihydro-1H-isothiochromen-1-yl]-2-thienyl}carbonyl)pyrimidin-4-yl]amino}-2-hydroxycyclopentyl]methyl sulfamate], the IC50 is under 10 nM. In addition, under setting [1], the “Percent Inhibition” value came out at 93%.
For `CN1CCc2ccc(Cl)cc2[C@@H]1c1csc(C(=O)c2cncnc2N[C@@H]2C[C@H](COS(N)(=O)=O)[C@@H](O)C2)c1` (single isomer, unassigned) [I-307a, [(1R,2S,4R)-4-{[5-({4-[(1R)-7-chloro-2-methyl-1,2,3,4-tetrahydroisoquinolin-1-yl]-2-thienyl}carbonyl)pyrimidin-4-yl]amino}-2-hydroxycyclopentyl]methyl sulfamate or [(1R,2S,4R)-4-{[5-({4-[(1S)-7-chloro-2-methyl-1,2,3,4-tetrahydroisoquinolin-1-yl]-2-thienyl}carbonyl)pyrimidin-4-yl]amino}-2-hydroxycyclopentyl]methyl sulfamate], the IC50 lay in the range of 100 to 1000 nM. Further, the “Percent Inhibition” value under setting [1] stood at 45%.
For the molecule `NS(=O)(=O)OC[C@H]1C[C@@H](Nc2ncncc2C(=O)c2cc(CC3=CCOC3)cs2)C[C@@H]1O` [I-193, {(1R,2S,4R)-4-[(5-{[4-(2,5-dihydrofuran-3-ylmethyl)-2-thienyl]carbonyl}pyrimidin-4-yl)amino]-2-hydroxycyclopentyl}methyl sulfamate], the pIC50 is 7.00 to 8.00. The inhibition at 0.111 µM (Concentration 0.111 μM) came out at 72%.
In the case of `Cc1ccccc1OCc1csc(C(=O)c2cncnc2N[C@@H]2C[C@H](COS(N)(=O)=O)[C@@H](O)C2)c1` [I-131, [(1R,2S,4R)-2-hydroxy-4-{[5-({4-[(2-methylphenoxy)methyl]-2-thienyl}carbonyl)pyrimidin-4-yl]amino}cyclopentyl]methyl sulfamate], the pIC50 was over 8.00. Besides, for the setting “Concentration 0.111 μM”, the inhibition at 0.111 µM stood at 96%.
In the case of `NS(=O)(=O)OC[C@H]1C[C@@H](Nc2ncncc2C(=O)c2cc(CN3CCc4sccc4C3)cs2)C[C@@H]1O` [I-168, {(1R,2S,4R)-4-[(5-{[4-(6,7-dihydrothieno[3,2-c]pyridin-5(4H)-ylmethyl)-2-thienyl]carbonyl}pyrimidin-4-yl)amino]-2-hydroxycyclopentyl}methyl sulfamate], the pIC50 was 7.00 to 8.00. The inhibition at 0.111 µM (Concentration 0.111 μM) came to 90%.
On to `Cc1sc(C(=O)c2cncnc2N[C@@H]2C[C@H](COS(N)(=O)=O)[C@@H](O)C2)cc1[C@@H]1OCCc2ccc(C(F)(F)F)cc21` (single isomer, unassigned) [I-258b, [(1R,2S,4R)-2-hydroxy-4-{[5-({5-methyl-4-[(1R)-7-(trifluoromethyl)-3,4-dihydro-1H-isochromen-1-yl]-2-thienyl}carbonyl)pyrimidin-4-yl]amino}cyclopentyl]methyl sulfamate or [(1R,2S,4R)-2-hydroxy-4-{[5-({5-methyl-4-[(1S)-7-(trifluoromethyl)-3,4-dihydro-1H-isochromen-1-yl]-2-thienyl}carbonyl)pyrimidin-4-yl]amino}cyclopentyl]methyl sulfamate], for which the pIC50 is 7.00 to 8.00. Further, the “Percent Inhibition” value (Concentration 0.111 μM) turned out to be 72.
Take `NS(=O)(=O)OC[C@H]1C[C@@H](Nc2ncncc2C(=O)c2cc([C@@H]3OCCc4ccccc43)cs2)C[C@@H]1O` (single isomer, unassigned) [I-254a, [(1R,2S,4R)-4-{[5-({4-[(1R)-3,4-dihydro-1H-isochromen-1-yl]-2-thienyl}carbonyl)pyrimidin-4-yl]amino}-2-hydroxycyclopentyl]methyl sulfamate or [(1R,2S,4R)-4-{[5-({4-[(1S)-3,4-dihydro-1H-isochromen-1-yl]-2-thienyl}carbonyl)pyrimidin-4-yl]amino}-2-hydroxycyclopentyl]methyl sulfamate]: the pIC50 was 7.00 to 8.00. Under “Concentration 0.111 μM”, the “Percent Inhibition” value is 81.
Consider `Cc1oc(C(=O)c2cncnc2N[C@@H]2C[C@H](COS(N)(=O)=O)[C@@H](O)[C@@H]2F)cc1Cc1cccc(Cl)c1` [I-75, [(1R,2R,3R,4R)-4-({5-[4-(3-chlorobenzyl)-5-methyl-2-furoyl]pyrimidin-4-yl}amino)-3-fluoro-2-hydroxycyclopentyl]methyl sulfamate], for which the pIC50 was over 8.00. Further, the inhibition at 0.111 µM (Concentration 0.111 μM) came out at 98%.
As to `NC(c1cccc(Br)n1)c1cc(C(=O)c2cncnc2NC2CC(O)C(COS(N)(=O)=O)C2)sc1Cl` (mixture of isomers) [I-18, [(1R,2S,4R)-4-{[5-({4-[(R)-amino(6-bromopyridin-2-yl)methyl]-5-chloro-2-thienyl}carbonyl)pyrimidin-4-yl]amino}-2-hydroxycyclopentyl]methyl sulfamate and [(1R,2S,4R)-4-{[5-({4-[(S)-amino(6-bromopyridin-2-yl)methyl]-5-chloro-2-thienyl}carbonyl)pyrimidin-4-yl]amino}-2-hydroxycyclopentyl]methyl sulfamate], the pIC50 is over 8.00. Moreover, the “Percent Inhibition” value (Concentration 0.111 μM) is given as 99.
Regarding `CC(C)(O)c1ccc(C(=O)c2cncnc2N[C@@H]2C[C@H](COS(N)(=O)=O)[C@@H](O)C2)s1` [I-235, {(1R,2S,4R)-2-hydroxy-4-[(5-{[5-(2-hydroxypropan-2-yl)-2-thienyl]carbonyl}pyrimidin-4-yl)amino]cyclopentyl}methyl sulfamate], the pIC50 was 6.00 to 7.00. For the same molecule, under “Concentration 0.111 μM”, the inhibition at 0.111 µM came to 22%.
With `NS(=O)(=O)OC[C@H]1C[C@@H](Nc2ncncc2C(=O)c2cc(Cc3cccc(Br)n3)cs2)C[C@@H]1O` [I-53, [(1R,2S,4R)-4-{[5-({4-[(6-bromopyridin-2-yl)methyl]-2-thienyl}carbonyl)pyrimidin-4-yl]amino}-2-hydroxycyclopentyl]methyl sulfamate], for the setting “Concentration 0.111 μM”, the inhibition at 0.111 µM was found to be 99%.
